Drawing on US6350747B1, “3-(anilinomethylene) oxindoles” (Glaxo Wellcome Inc., priority 1999, dated 2002), this text covers IC50 for eleven compounds.

Assay [1] concerns the target T1, VEGFR-2 (Homo sapiens, UniProt P35968).
T1 construct: The kinase domain of the enzyme was purified to homogeneity from a baculovirus expression system; made in house
Put plainly: VEGFR-2 substrate phosphorylation assay. In kind it is biochemical.
Description: Substrate phosphorylation assays were carried out as follows:
The kinase domain of the enzyme was purified to homogeneity from a baculovirus expression system. The enzyme was preactivated on ice for 15 min in the presence of 100 μM ATP and 20 mM MgCl2, and stored at −80° C. until needed for assay. The activated enzyme was diluted to 0.4 nM into a 60 μl reaction containing 100 mM HEPES, pH 7.5, 5 μM ATP, 10 mM MgCl2, 5 μM peptide, 0.1 mM DTT, 0.05 mg/ml BSA, and an inhibitor at varying concentrations. The controls were reactions in the presence (negative controls) or absence (positive controls) of 50 mM EDTA. Reactions were incubated for 30 min at room temperature, and then quenched by the addition of EDTA to 60 mM in 210 μl . The quenched samples (190 μl) were transferred to a neutravidin-coated plate (Pierce) and incubated at room temperature for 40 min to allow biotinylated peptide to bind to the neutravidin. The unbound components of the reaction were removed by washing with a plate washer, then 200 μl HRP-PY20 anti-phosphotyrosine antibody conjugate was added to each well. After incubation for 40 min, the plate was washed to remove any unbound anitbody. A HRP substrate, K-blue (Neogen) was added and the reaction was quenched with Red Stop (Neogen) after 20 min. The absorbance of the wells was read at A650 in a plate reader. IC50 values were obtained by fitting raw data to A650=VMAX*(1−[I]/IC50+[I])))+b, where b is background.

Assay [2] relates to HUVEC cells. Kind of assay: HUVEC BrdU incorporation, VEGF stimulation. It counts as cell-based. The following applies: Homo sapiens, 20 ng/ml VEGF, 72 hrs, read-out: Inhibition of BrdU incorporation in HUVEC cells, VEGF stimulation, IC50.
Excerpt: (§1) An assay to measure this effect involves measurement of the inhibition of bromo-deoxy uridine (BrdU) incorporation (evidence of DNA synthesis) in human umbilical vein endothelial cells (HUVECs).
(§2) HUVEC cells and EGM (Endothelial cell growth medium) were purchased from Clonetics (San Diego, CA). VEGF and bFGF were purchased from Genzyme. M199 medium (Gibco BRL) with BSA (Sigma) was used for cell culture in Type I collagen coated plates (Becton Dickinson). The degree of BrdU incorporation was measured using a commercial colorimetric ELISA assay from Boehringer Mannheim.
(§3) HUVECs were plated at a density of 2500 cells per well in M199 medium containing 5% FBS (Hyclone) in a Type-1 Collagen coated plate. The plate was incubated at 37° C. overnight. The medium was removed by aspiration, and test compounds were added to each well in a volume of 0.1 ml per well in serum-free M199 medium. […] The plate was incubated for 30 min at 37° C. Another 0.1 ml of serum-free M199 medium containing BSA and VEGF (or bFGF) was added to give a final concentration of 0.1% BSA and 20 ng/ml VEGF (0.3 ng/ml bFGF). The plate was incubated at 37° C. for 72 hrs. BrdU was added to each well after the first 48 hrs to give a concentration of 10 micomolar. The colorimetric ELISA assay was performed according to manufacturer's instructions, with detection by absorbance reading at 450 nm.
The target in assay [3] is T2, Tie-2 (Homo sapiens, UniProt Q02763).
T2 construct: The kinase domain of the enzyme was purified to homogeneity from a baculovirus expression system; made in house
Put plainly: Tie-2 substrate phosphorylation assay. It counts as biochemical.
Description: The peptide substrate used in the Tie-2 assay was biotin-aminohexyl-[sequence]amide. The kinase domain of the enzyme was purified to homogeneity from a baculovirus expression system. The enzyme was diluted to 10 nM into a 60 μl reaction containing 100 mM HEPES, pH 7.5, 500 μM ATP, 10 mM MgCl2, 2 μM peptide, 1 mM DTT, 0.05 mg/ml BSA, and an inhibitor at varying concentrations. The controls were reactions in the presence (negative controls) or absence (positive controls) of 50 mM EDTA. Reactions were incubated for 30 min at room temperature, and then quenched by stopped by 80 μl, of 0.15 M EDTA. […] The neutravidin plates were then washed with water for 5 times. Europium conjugated anti-phosphotyrosine antibody, (EG & G Wallac, #CR04-100) (1 mg/ml) was diluted 1:10,000 in 1%BSA-0.05% Tween 20-TBS, and 150 μl of the diluted antibody was added to each well of the neutravidin plate, so the phosphorylated peptide was bound with the Europium labelled antibody. After another 30-60 min incubation at room temperature, the plates were washed again with water for 5 times. 150 ul of Enhancemant solution was then added to each well, dissociating Eu^3+ from solid phase bound antibodies to form a homogeneous and highly fluorescent Eu-(2-NTA)3(TOPO)2-3 micellar chelate solution.
The kinase activity of all wells was calculated as %S, the percentage of the fluorescent counts vs. positive controls after substraction of negative controls, as in eq.
Plots of compound concentration versus %S were constructed.
%S=%Smax*(1−(X/(K+X)))+Y2 (2)

The subject of assay [4] is HUVEC cells. Kind of assay: HUVEC BrdU incorporation, bFGF stimulation. In kind it is cell-based. The following applies: Homo sapiens, 0.3 ng/ml bFGF, 72 hrs, read-out: Inhibition of BrdU incorporation in HUVEC cells, BFGF Stimulation, IC50.
Excerpt: as §1, §2, §3
For assay [5], the target named is T3, c-fms (Homo sapiens, UniProt P07333).
T3 construct: The c-fms intracellular domain was expressed from a baculovirus expression system, as an amino-terminal GST fusion protein; GST (N); made in house
T3 sequence (P07333 539-972 limits assumed): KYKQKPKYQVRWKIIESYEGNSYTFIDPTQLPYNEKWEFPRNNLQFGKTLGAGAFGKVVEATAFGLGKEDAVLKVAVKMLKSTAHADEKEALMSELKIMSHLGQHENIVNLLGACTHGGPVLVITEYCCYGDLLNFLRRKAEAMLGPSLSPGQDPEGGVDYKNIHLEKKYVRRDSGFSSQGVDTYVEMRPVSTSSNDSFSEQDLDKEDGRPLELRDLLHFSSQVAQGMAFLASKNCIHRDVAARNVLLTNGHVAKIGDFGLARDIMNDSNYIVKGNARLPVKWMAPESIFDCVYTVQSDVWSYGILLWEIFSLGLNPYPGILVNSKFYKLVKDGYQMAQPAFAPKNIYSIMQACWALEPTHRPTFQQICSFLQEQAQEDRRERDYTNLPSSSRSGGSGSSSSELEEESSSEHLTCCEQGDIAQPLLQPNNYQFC
Kind of assay: c-fms protein kinase assay. In kind it is biochemical. The following applies: read-out: c-fms kinase inhibition IC50. The protocol: c-fms protein kinase assays utilized the peptide substrate, biotin-EAl[…]-NH2, as the phosphoryl group acceptor. The c-fms intracellular domain was expressed from a baculovirus expression system, as an amino-terminal GST fusion protein, and purified to homogeneity using Glutathione agarose from Sigma Chemical Co. Maximum activation of the enzyme was achieved by preactivation at room temperature for 120 min in the presence of 100 μM ATP and 15 mM MgCl2. This enzyme stock was diluted to 150 nM prior to using in the assay. Typically assays were performed in white, opaque, 96-well plates in a 45 ul assay volume including 15 ul 6% DMSO, with or without compounds, 15 ul of the preactivated, diluted enzyme, and 15 ul of a substrate mixture. Reactions contained 50 mM HEPES, pH 7.5, 1.7 μM ATP, 15 mM MgCl2, […] peptide, 2.5 μM DTT, 50 mM NaCl and 0.15 uCi/assay [^32P]ATP. The controls were reactions in the presence (negative controls) or absence (positive controls) of 50 mM EDTA. Reactions were allowed to proceed for 90 min at room temperature. The reaction products were quantified using Scintillation Proximity technolgy. The reactions were quenched by the addition of 200 ul of a solution containing 0.3 mg streptavidin SPA beads from Amersham, 50 mM EDTA, 0.1% TX-100, 50 uM ATP, in PBS, pH7.2 (phosphate buffered solution). Plates were sealed and counted in a Packard Topcount scintillation counter. IC50 values were obtained by fitting raw data to the equation y=Vmax*(1−(x/(k+x))).

The target of assay [6] is T4, CDK2 (Homo sapiens, UniProt P24941).
T4 construct: made in house
Put plainly: CDK2 cyclin dependent protein kinase assay. It counts as biochemical. The following applies: read-out: CDK2 kinase inhibition IC50. Here is the method: Cyclin dependent protein kinase assays utilized the peptides Biotin-aminohexyl-[…] and Biotin-aminohexyl-[…]-NH2 as phosphoryl group acceptors. CDK1 and CDK2 were both expressed utilizing a baculovirus expression system and were partially purified to comprise 20-80% of total protein, with no detectable competing reactions present. Typically, assays were performed by incubating either enzyme (0.2-10 nM), with and without inhibitor, one of the two peptide substrates ([…]), [γ-^32P]ATP ([…]), and 10-20 mM Mg^2+ for periods of time generally within the range 10-120 min. Reactions were terminated with 0.2-2 volumes of either 20% acetic acid or 50-100 mM EDTA buffered to pH 7 (substrate consumption<20%). The buffer employed in enzyme assays was either 30 mM HEPES 7.4 containing 0.15 M NaCl and 5% DMSO, the buffer 50 mM MOPS 7.0 containing 0.15 M NaCl and 5% DMSO, or the buffer 100 mM HEPES pH 7.5 containing 0.1 mg/mL BSA and 5% DMSO. Inhibitors were diluted in 100% DMSO prior to addition into the assay. Detection of peptide phosphorylation was accomplished by scintillation counting following either collection of peptide onto phosphocellulose filters (for reactions stopped with acetic acid), collection of peptide in wells of 96 well plates coated with Streptavidin (Pierce) (reactions were stopped with EDTA), or addition of Avidin coated Scintillant impregnated beads (Scintillation Proximity Assays from Amersham, reactions were stopped with EDTA).

[7] abbreviates: read-out: VEGFR2 kinase inhibition IC50.
Setting [8] is: read-out: Tie-2 kinase inhibition IC50.

pIC50: −log10 of the molar value. Where two headings read alike, the source gives them in different places.

T2 sequence (Q02763 824-1096 limits assumed, species assumed): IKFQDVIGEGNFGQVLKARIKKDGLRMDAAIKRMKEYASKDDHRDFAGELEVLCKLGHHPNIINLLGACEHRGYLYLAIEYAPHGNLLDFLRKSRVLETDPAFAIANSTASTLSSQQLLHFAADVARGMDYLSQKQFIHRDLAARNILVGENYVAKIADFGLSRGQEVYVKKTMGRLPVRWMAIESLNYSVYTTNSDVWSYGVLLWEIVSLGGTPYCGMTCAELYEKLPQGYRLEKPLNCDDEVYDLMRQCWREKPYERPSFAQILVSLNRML
T1 sequence (P35968 834-1162 limits assumed, species assumed): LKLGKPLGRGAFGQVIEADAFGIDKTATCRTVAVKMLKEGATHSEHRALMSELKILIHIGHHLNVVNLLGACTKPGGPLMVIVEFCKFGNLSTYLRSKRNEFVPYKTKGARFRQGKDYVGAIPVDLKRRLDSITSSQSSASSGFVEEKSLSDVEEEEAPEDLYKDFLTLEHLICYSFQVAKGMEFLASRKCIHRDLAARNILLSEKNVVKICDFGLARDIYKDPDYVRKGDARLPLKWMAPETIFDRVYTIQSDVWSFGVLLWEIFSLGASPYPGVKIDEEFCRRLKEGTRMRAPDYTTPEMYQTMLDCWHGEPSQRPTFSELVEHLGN

Turning to `CC(=O)N(C)c1ccc(N/C=C2\C(=O)Nc3ccc4ncsc4c32)cc1` [Example 58, N-Methyl-N-(4-{(Z)-[(7-oxo-6,7-dihydro-8H-[1,3]thiazolo[5,4-e]indol-8-ylidene)methyl]amino}phenyl)acetamide], the pIC50 is 7.30 to 7.96 in assay [1] (setting [7]), 6.30 to 8.00 in assay [2], under 7.00 in assay [3] (setting [8]) and 5.30 to 5.96 in assay [4].
For `CCC1(c2ccc(N/C=C3\C(=O)Nc4ccc5ncccc5c43)cc2)CCC(=O)NC1=O` (stereo not drawn) [Example 63, 3-Ethyl-3-(4-{(Z)-[(2-oxo-2,3dihydro-1H-pyrrolo[3,2-f]quinolin-1-ylidene)methyl]amino}phenyl)-2,6-piperidinedione] the same measures were 8.00 to 9.00, 6.30 to 8.00, under 7.00 and 6.00 to 6.22.
For `Cc1cc(=O)[nH]n1-c1ccc(N/C=C2\C(=O)Nc3ccc4ncccc4c32)cc1` [Example 66, 1-{(Z)-[4-(5-Methyl-3-oxo-2,3-dihydro-1H-pyrazol-1-yl)anilino]methylidene}-1H-pyrrolo[3,2-f]quinolin-2(3H)-one] the same measures were 8.00 to 9.00, 6.00 to 6.22, under 7.00 and under 5.30.
Turning to `CCC1(c2ccc(N/C=C3\C(=O)Nc4ccc5ncsc5c43)cc2)CCC(=O)NC1=O` (stereo not drawn) [Example 48, 3-Ethyl-3-(4-{(Z)-[(7-oxo-6,7dihydro-8H-[1,3]thiazolo[5,4-e]indol-8-ylidene)methyl]amino}phenyl)-2,6-piperidinedione], the pIC50 in assay [1] (setting [7]) is 8.00 to 9.00; in assay [5], under 7.00; in assay [2] it was 6.30 to 8.00; in assay [3] (setting [8]) it was under 7.00; in assay [4], 6.00 to 6.22.
For the compound `O=C1Nc2ccc3ncccc3c2/C1=C/Nc1ccc(N2CCOCC2)cc1` [Example 29, 1-{(Z)-[4-(4-Morpholinyl)anilino]methylidene}-1,3-dihydro-2H-pyrrolo[3,2-f]quinolin-2-one], the pIC50 in assay [1] (setting [7]) is 7.30 to 7.96; in assay [5] it was under 7.00; in assay [2], 6.30 to 8.00; in assay [6] it was under 7.00; in assay [3] (setting [8]) it was under 7.00; in assay [4], under 5.30.
Consider `CCN(CC)CCS(=O)(=O)c1ccc(N/C=C2\C(=O)Nc3ccc4ncsc4c32)cc1` [Example 71, 8-[(Z)-(4-{[2-(Diethylamino)ethyl]sulfonyl}anilino)methylidene]-6H-[1,3]thiazolo[5,4-e]indol-7-one], for which the pIC50 in assay [1] (setting [7]) is 7.30 to 7.96; in assay [2] it was 6.30 to 8.00; in assay [3] (setting [8]), under 7.00; in assay [4], 6.30 to 8.00.
For `CCN(CC)CCS(=O)(=O)c1ccc(N/C=C2\C(=O)Nc3ccc4ncccc4c32)cc1` [Example 72, 1-[(Z)-(4-{[2-(Diethylamino)ethyl]sulfonyl}anilino)methylidene]-1H-pyrrolo[3,2-f]quinolin-2(3H)-one], the pIC50 in assay [1] is 8.00 to 9.00; in assay [2], 6.30 to 8.00; in assay [3], under 7.00; in assay [4] it was 6.30 to 8.00.
Regarding `Cc1cc(=O)[nH]n1-c1ccc(N/C=C2\C(=O)Nc3ccc4ncsc4c32)cc1` [Example 55, 8-{(Z)-[4-(5-Methyl-3-oxo-2,3-dihydro-1H-pyrazol-1-yl)anilino]methylidene}-6H-[1,3]thiazolo[5,4-e]indol-7-one], the pIC50 in assay [1] (setting [7]) is 8.00 to 9.00; in assay [5], under 7.00; in assay [2] it was 5.30 to 5.96; in assay [6], 7.30 to 7.96; in assay [3] (setting [8]) it was under 7.00; in assay [4] it was under 5.30.
Consider `NC(=O)c1ccc(N/C=C2\C(=O)Nc3ccc4ncsc4c32)cc1` [Example 24, 4-{[(Z)-(7-Oxo-6,7-dihydro-8H-[1,3]thiazolo[5,4-e]indol-8-ylidene)methyl]amino}benzamide], for which the pIC50 in assay [1] was 7.30 to 7.96; in assay [5] it was under 7.00; in assay [2], 6.30 to 8.00; in assay [6] it was 7.00 to 7.29; in assay [3] (setting [8]), under 7.00; in assay [4], under 5.30.
As for `O=C1Nc2ccc3ncccc3c2/C1=C/Nc1ccc(Cc2ccncc2)cc1` [Example 30, 1-{(Z)-[4-(4-Pyridinylmethyl)anilino]methylidene}-1,3-dihydro-2H-pyrrolo[3,2-f]quinolin-2-one], the pIC50 in assay [1] (setting [7]) is 7.30 to 7.96; in assay [5] it was under 7.00; in assay [2], 6.30 to 8.00; in assay [6], 7.30 to 7.96; in assay [3] (setting [8]), under 7.00; in assay [4], 5.30 to 5.96.
`O=C1Nc2ccc3ncccc3c2/C1=C/Nc1ccc(CCO)cc1` [Example 32, 1-{(Z)-[4-(2-Hydroxyethyl)anilino]methylidene}-1,3-dihydro-2H-pyrrolo[3,2-f]quinolin-2-one]: the pIC50 in assay [1] (setting [7]) was 7.30 to 7.96; in assay [2] it was 6.30 to 8.00; in assay [6], 7.00 to 7.29; in assay [3] (setting [8]) it was under 7.00; in assay [4], 5.30 to 5.96.
